The results in this text go back to US7041684B2, “Selective β3 adrenergic agonists” (Eli Lilly and Company, priority 1996, dated 2006).

A word on the melting point: it is the temperature, or range, at which the solid turns liquid.

The structures appear in SMILES notation. Where a name gives a salt, the structure may show the parent alone.

Consider `CC(C)(CNC(=O)c1ccc(Oc2ccc(C#N)cc2)cc1)NC[C@H](O)COc1cccc2[nH]c3ccccc3c12` (as salt: HCl), for which the melting point is 120 to 130 °C (dec.). The result for `CCOC(=O)COc1ccc(OCCNC[C@H](O)COc2cccc3[nH]c4ccccc4c23)cc1` (as salt: HCl) reads 57 to 61 °C (dec.).
